Reference: ChEMBL document CHEMBL1201862, “PubChem BioAssay data set” (2004)
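Grown in 96-well plates, cells were treated for 48 hours with each compound at five concentrations. Insufficient inhibition: endpoint recorded as highest concentration tested. Abbreviation: GI50, concentration required for 50% inhibition of growth.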 Active and inactive are the calls of the source. No stated cut-off is given here; in the data, active = GI50 up to about 1.1 µM and inactive = higher.

How the values were obtained:
Assay in all cases: inhibition of tumour cell growth, NCI panel, 48 h
[1] = tested on: 786-0
[2] = tested on: A549
[3] = tested on: ACHN
[4] = tested on: CAKI-1
[5] = tested on: CCRF-CEM
[6] = tested on: COLO 205
[7] = tested on: DU-145
[8] = tested on: EKVX
[9] = tested on: HCT-116
[10] = tested on: HCT-15
[11] = tested on: HL-60
[12] = tested on: HOP-62
[13] = tested on: HOP-92
[14] = tested on: HT-29
[15] = tested on: Hs-578T
[16] = tested on: IGROV-1
[17] = tested on: K562
[18] = tested on: KM12
[19] = tested on: LOX IMVI
[20] = tested on: M14
[21] = tested on: MCF7
[22] = tested on: MDA-MB-231
[23] = tested on: MDA-MB-435
[24] = tested on: MDA-N
[25] = tested on: MOLT-4
[26] = tested on: Malme-3M
[27] = tested on: NCI-H226
[28] = tested on: NCI-H23
[29] = tested on: NCI-H460
[30] = tested on: NCI-H522
[31] = tested on: NCI/ADR-RES
[32] = tested on: OVCAR-3
[33] = tested on: OVCAR-4
[34] = tested on: OVCAR-5
[35] = tested on: OVCAR-8
[36] = tested on: PC-3
[37] = tested on: RPMI-8226
[38] = tested on: RXF 393
[39] = tested on: SF-268
[40] = tested on: SF-295
[41] = tested on: SF-539
[42] = tested on: SK-MEL-28
[43] = tested on: SK-MEL-2
[44] = tested on: SK-MEL-5
[45] = tested on: SK-OV-3
[46] = tested on: SN12C
[47] = tested on: SNB-19
[48] = tested on: SNB-75
[49] = tested on: SR
[50] = tested on: SW-620
[51] = tested on: TK-10
[52] = tested on: U-251
[53] = tested on: UACC-257
[54] = tested on: UACC-62
[55] = tested on: UO-31
[56] = tested on: HCC 2998
[57] = tested on: T47D
[58] = tested on: A498

O=C(O)CCNc1ncc2c(n1)-c1ccccc1OC2
GI50 [1]: > 100 µM (inactive) | GI50 [2]: > 100 µM (inactive) | GI50 [3]: > 100 µM (inactive) | GI50 [4]: > 100 µM (inactive) | GI50 [5]: > 100 µM (inactive) | GI50 [6]: > 100 µM (inactive) | GI50 [7]: > 100 µM (inactive) | GI50 [8]: 61.7 µM (inactive) | GI50 [9]: > 100 µM (inactive) | GI50 [10]: > 100 µM | GI50 [11]: > 100 µM (inactive) | GI50 [12]: > 100 µM (inactive) | GI50 [13]: 29 µM (inactive) | GI50 [14]: > 100 µM (inactive) | GI50 [15]: 61 µM (inactive) | GI50 [16]: 36.2 µM (inactive) | GI50 [17]: > 100 µM (inactive) | GI50 [18]: > 100 µM (inactive) | GI50 [19]: > 100 µM (inactive) | GI50 [20]: > 100 µM (inactive) | GI50 [21]: > 100 µM (inactive) | GI50 [22]: > 100 µM (inactive) | GI50 [23]: > 100 µM (inactive) | GI50 [24]: > 100 µM (inactive) | GI50 [25]: > 100 µM (inactive) | GI50 [26]: > 100 µM (inactive) | GI50 [27]: > 100 µM (inactive) | GI50 [28]: > 100 µM (inactive) | GI50 [29]: > 100 µM (inactive) | GI50 [30]: > 100 µM (inactive) | GI50 [31]: > 100 µM (inactive) | GI50 [32]: > 100 µM (inactive) | GI50 [33]: > 100 µM (inactive) | GI50 [34]: > 100 µM (inactive) | GI50 [35]: > 100 µM (inactive) | GI50 [36]: > 100 µM (inactive) | GI50 [37]: > 100 µM (inactive) | GI50 [38]: > 100 µM (inactive) | GI50 [39]: > 100 µM (inactive) | GI50 [40]: > 100 µM (inactive) | GI50 [41]: > 100 µM (inactive) | GI50 [42]: > 100 µM (inactive) | GI50 [43]: > 100 µM (inactive) | GI50 [44]: > 100 µM (inactive) | GI50 [45]: > 100 µM (inactive) | GI50 [46]: > 100 µM (inactive) | GI50 [47]: > 100 µM (inactive) | GI50 [48]: 28.8 µM (inactive) | GI50 [49]: > 100 µM (inactive) | GI50 [50]: > 100 µM (inactive) | GI50 [51]: > 100 µM (inactive) | GI50 [52]: > 100 µM (inactive) | GI50 [53]: > 100 µM (inactive) | GI50 [54]: > 100 µM (inactive) | GI50 [55]: > 100 µM (inactive)

Cc1c(CCCl)c(N=P(c2ccccc2)(c2ccccc2)c2ccccc2)n2c(nc3ccccc32)c1C#N
GI50 [1]: > 10 µM (inactive) | GI50 [2]: > 10 µM (inactive) | GI50 [4]: > 10 µM (inactive) | GI50 [5]: 4.67 µM (inactive) | GI50 [6]: > 10 µM (inactive) | GI50 [7]: > 10 µM (inactive) | GI50 [8]: > 10 µM (inactive) | GI50 [56]: > 10 µM (inactive) | GI50 [10]: > 10 µM | GI50 [12]: > 10 µM (inactive) | GI50 [14]: 5.79 µM (inactive) | GI50 [16]: > 10 µM (inactive) | GI50 [17]: > 10 µM (inactive) | GI50 [18]: > 10 µM (inactive) | GI50 [19]: > 10 µM (inactive) | GI50 [20]: > 10 µM (inactive) | GI50 [21]: > 10 µM (inactive) | GI50 [22]: > 10 µM (inactive) | GI50 [24]: > 10 µM (inactive) | GI50 [25]: > 10 µM (inactive) | GI50 [26]: > 10 µM (inactive) | GI50 [28]: > 10 µM (inactive) | GI50 [35]: > 10 µM (inactive) | GI50 [36]: > 10 µM (inactive) | GI50 [37]: > 10 µM (inactive) | GI50 [38]: > 10 µM (inactive) | GI50 [39]: > 10 µM (inactive) | GI50 [40]: > 10 µM (inactive) | GI50 [42]: > 10 µM (inactive) | GI50 [44]: > 10 µM (inactive) | GI50 [45]: > 10 µM (inactive) | GI50 [46]: > 10 µM (inactive) | GI50 [48]: > 10 µM (inactive) | GI50 [49]: > 10 µM (inactive) | GI50 [50]: > 10 µM (inactive) | GI50 [57]: > 10 µM (inactive) | GI50 [51]: > 10 µM (inactive) | GI50 [53]: > 10 µM (inactive) | GI50 [54]: > 10 µM (inactive)

O=C(CC(C(=O)c1cccs1)c1cccs1)c1ccsc1 (stereo not given)
GI50 [1]: 50.5 µM (inactive) | GI50 [58]: 49.7 µM (inactive) | GI50 [2]: 43.3 µM (inactive) | GI50 [3]: 67 µM (inactive) | GI50 [4]: > 100 µM (inactive) | GI50 [5]: 37.9 µM (inactive) | GI50 [6]: 45.3 µM (inactive) | GI50 [7]: > 100 µM (inactive) | GI50 [8]: 66.1 µM (inactive) | GI50 [56]: 57.4 µM (inactive) | GI50 [9]: 36.6 µM (inactive) | GI50 [10]: 38.3 µM | GI50 [11]: 29 µM (inactive) | GI50 [12]: 73.6 µM (inactive) | GI50 [14]: 57.9 µM (inactive) | GI50 [15]: > 100 µM (inactive) | GI50 [16]: > 100 µM (inactive) | GI50 [17]: 46 µM (inactive) | GI50 [18]: 34 µM (inactive) | GI50 [19]: 10.2 µM (inactive) | GI50 [20]: 38.2 µM (inactive) | GI50 [21]: 32.8 µM (inactive) | GI50 [22]: 38 µM (inactive) | GI50 [23]: 20.2 µM (inactive) | GI50 [24]: 19.4 µM (inactive) | GI50 [25]: 46.2 µM (inactive) | GI50 [26]: 40.8 µM (inactive) | GI50 [27]: > 100 µM (inactive) | GI50 [28]: 35.6 µM (inactive) | GI50 [29]: 42.4 µM (inactive) | GI50 [31]: 32.7 µM (inactive) | GI50 [33]: 67.1 µM (inactive) | GI50 [34]: > 100 µM (inactive) | GI50 [35]: 59.2 µM (inactive) | GI50 [36]: 35.8 µM (inactive) | GI50 [37]: 36.1 µM (inactive) | GI50 [39]: 56.4 µM (inactive) | GI50 [41]: 67 µM (inactive) | GI50 [42]: 47.5 µM (inactive) | GI50 [43]: 35.7 µM (inactive) | GI50 [44]: 39.6 µM (inactive) | GI50 [45]: 50.1 µM (inactive) | GI50 [46]: 39.4 µM (inactive) | GI50 [47]: 75.2 µM (inactive) | GI50 [48]: 40.2 µM (inactive) | GI50 [49]: 37.2 µM (inactive) | GI50 [50]: 44.1 µM (inactive) | GI50 [57]: 39.6 µM (inactive) | GI50 [51]: > 100 µM (inactive) | GI50 [52]: 41.6 µM (inactive) | GI50 [53]: 60 µM (inactive) | GI50 [54]: 37.5 µM (inactive) | GI50 [55]: 43.5 µM (inactive)

Cl.O=C(O)c1cccnc1
GI50 [1]: > 100 µM (inactive) | GI50 [2]: > 100 µM (inactive) | GI50 [3]: > 100 µM (inactive) | GI50 [4]: > 100 µM (inactive) | GI50 [5]: > 100 µM (inactive) | GI50 [6]: > 100 µM (inactive) | GI50 [7]: > 100 µM (inactive) | GI50 [8]: > 100 µM (inactive) | GI50 [56]: > 100 µM (inactive) | GI50 [9]: > 100 µM (inactive) | GI50 [10]: > 100 µM | GI50 [11]: > 100 µM (inactive) | GI50 [12]: > 100 µM (inactive) | GI50 [13]: > 100 µM (inactive) | GI50 [14]: > 100 µM (inactive) | GI50 [15]: > 100 µM (inactive) | GI50 [16]: > 100 µM (inactive) | GI50 [17]: > 100 µM (inactive) | GI50 [18]: > 100 µM (inactive) | GI50 [19]: > 100 µM (inactive) | GI50 [20]: > 100 µM (inactive) | GI50 [21]: > 100 µM (inactive) | GI50 [22]: > 100 µM (inactive) | GI50 [23]: > 100 µM (inactive) | GI50 [24]: > 100 µM (inactive) | GI50 [25]: > 100 µM (inactive) | GI50 [26]: > 100 µM (inactive) | GI50 [27]: > 100 µM (inactive) | GI50 [28]: > 100 µM (inactive) | GI50 [29]: > 100 µM (inactive) | GI50 [30]: > 100 µM (inactive) | GI50 [31]: > 100 µM (inactive) | GI50 [32]: > 100 µM (inactive) | GI50 [33]: > 100 µM (inactive) | GI50 [34]: 64.4 µM (inactive) | GI50 [35]: > 100 µM (inactive) | GI50 [36]: > 100 µM (inactive) | GI50 [37]: > 100 µM (inactive) | GI50 [39]: > 100 µM (inactive) | GI50 [40]: > 100 µM (inactive) | GI50 [41]: 34.8 µM (inactive) | GI50 [42]: > 100 µM (inactive) | GI50 [44]: > 100 µM (inactive) | GI50 [46]: > 100 µM (inactive) | GI50 [47]: > 100 µM (inactive) | GI50 [48]: > 100 µM (inactive) | GI50 [49]: > 100 µM (inactive) | GI50 [50]: > 100 µM (inactive) | GI50 [57]: > 100 µM (inactive) | GI50 [51]: > 100 µM (inactive) | GI50 [52]: > 100 µM (inactive) | GI50 [53]: > 100 µM (inactive) | GI50 [55]: > 100 µM (inactive)
